Test results taken from patent publication US7172751B2, “D-amino acid peptides” (Immunomedics, Inc., priority 2003, dated 2007).
*1 amine or outer side, *2 acyl side, *3 side chain or, on linkers, in order; H or OH if unused. Where a SMILES comes first, the peptide text is derived from it. Side-chain parts run from the residue outwards. [ ]: non-standard residue; d: D form. The star is where a group is joined. DOTA = O=C(O)CN1CCN(CC(=O)O)CCN(CC(=O)*)CCN(CC(=O)O)CC1; NH(2-(imidazol-4-yl)ethyl) = c1ncc(CCN*)[nH]1; Suc = O=C(CCC(=O)[*:2])[*:1]

What was measured:
[1] = Procedure: A mixture of the labeled peptide and mouse serum was made and incubated at 37° C. The mouse serum was fresh nude mouse serum obtained from (GSCC on the same day). The Indium-labeled peptide solution (50 μL) and 450 μL of the mouse serum were combined and vortexed. This was incubated at 37° C. for 18.0 hrs. Injections were made into the reverse phase HPLC at t0=0 hrs and t1=18.0 hrs.
Aliquots were withdrawn at various time points and examined by reverse phase HPLC and by size exclusion HPLC.
The peptide was monitored as described above by HPLC.

[2] = Pretargeting biodistribution of 111In-IMP 241, 281, 284 after 125I-hMN-14×m679; conditions: NCr nude, mouse, in vivo, total radioactivity
Description: NCr nudes: (NCI) from Taconic, 4 weeks of age
At the times shown above, 5 mice per time point will be necropsied. Tissues (tumor, liver, spleen, kidney, lungs, blood, stomach, large and small intestines) will be isolated, weighed and counted in the appropriate windows.

[3] = test system: GW-39 human colonic xenograft tumors; assay: Biodistribution of 111In IMP 237 in mice pretargeted with hMN-14×m679; format: in vivo; conditions: pretargeting
Description: The animals were sacrificed at 3, 24, 48 hr post injection. The tumor to non-tumor ratios of the peptides in the pretargeting study are show in Table 2.

## NC(=O)[C@H](CCCCNC(=O)CNC(=O)CCC(=O)NCCc1cnc[nH]1)NC(=O)[C@@H](Cc1ccc(O)cc1)NC(=O)[C@H](CCCCNC(=O)CNC(=O)CCC(=O)NCCc1cnc[nH]1)NC(=O)[C@H](Cc1ccccc1)NC(=O)CN1CCN(CC(=O)O)CCN(CC(=O)O)CCN(CC(=O)O)CC1 [IMP 241, DOTA-Phe-Lys(HSG)-D-Tyr-Lys(HSG)-NH2, reference compound] ({DOTA}-FK([Gly-Suc-NH(2-(imidazol-4-yl)ethyl)])[dY]K([Gly-Suc-NH(2-(imidazol-4-yl)ethyl)])-NH2)
[1]
  decomposed in mouse serum: ~5%
[2]
  tissue uptake at 24 h: 0.28 %ID/g

## NC(=O)[C@H](CCCCNC(=O)CNC(=O)CCC(=O)NCCc1cnc[nH]1)NC(=O)[C@H](Cc1ccc(O)cc1)NC(=O)[C@H](CCCCNC(=O)CNC(=O)CCC(=O)NCCc1cnc[nH]1)NC(=O)[C@H](Cc1ccccc1)NC(=O)CN1CCN(CC(=O)O)CCN(CC(=O)O)CCN(CC(=O)O)CC1 [IMP 237, DOTA-Phe-Lys(HSG)-Tyr-Lys(HSG)-NH2] ({DOTA}-FK([Gly-Suc-NH(2-(imidazol-4-yl)ethyl)])YK([Gly-Suc-NH(2-(imidazol-4-yl)ethyl)])-NH2)
[1]
  converted to the shorter retention time peak: about 70%
[3]; Blood, 3 hr After 111In
  % Injected/g Tissue: 2.42 ± 0.61 % Injected/g Tissue
[3]; Blood, 24 hr After 111In
  % Injected/g Tissue: 0.73 ± 0.17 % Injected/g Tissue
[3]; Blood, 48 hr After 111In
  % Injected/g Tissue: 0.17 ± 0.06 % Injected/g Tissue
[3]; GW-39, 3 hr After 111In
  % Injected/g Tissue: 7.25 ± 2.79 % Injected/g Tissue
[3]; GW-39, 24 hr After 111In
  % Injected/g Tissue: 8.38 ± 1.70 % Injected/g Tissue
[3]; GW-39, 48 hr After 111In
  % Injected/g Tissue: 5.39 ± 1.46 % Injected/g Tissue
[3]; Kidney, 3 hr After 111In
  % Injected/g Tissue: 3.59 ± 0.75 % Injected/g Tissue
[3]; Kidney, 24 hr After 111In
  % Injected/g Tissue: 2.24 ± 0.40 % Injected/g Tissue
[3]; Kidney, 48 hr After 111In
  % Injected/g Tissue: 1.27 ± 0.33 % Injected/g Tissue
[3]; Lg. Int., 24 hr After 111In
  % Injected/g Tissue: 0.17 ± 0.03 % Injected/g Tissue
[3]; Lg. Int., 48 hr After 111In
  % Injected/g Tissue: 0.13 ± 0.03 % Injected/g Tissue
[3]; Liver, 3 hr After 111In
  % Injected/g Tissue: 0.58 ± 0.13 % Injected/g Tissue
[3]; Liver, 24 hr After 111In
  % Injected/g Tissue: 0.62 ± 0.09 % Injected/g Tissue
[3]; Liver, 48 hr After 111In
  % Injected/g Tissue: 0.61 ± 0.16 % Injected/g Tissue
[3]; Lungs, 3 hr After 111In
  % Injected/g Tissue: 1.19 ± 0.26 % Injected/g Tissue
[3]; Lungs, 24 hr After 111In
  % Injected/g Tissue: 0.44 ± 0.10 % Injected/g Tissue
[3]; Lungs, 48 hr After 111In
  % Injected/g Tissue: 0.22 ± 0.06 % Injected/g Tissue
[3]; Sm. Int., 3 hr After 111In
  % Injected/g Tissue: 0.65 ± 0.74 % Injected/g Tissue
[3]; Sm. Int., 24 hr After 111In
  % Injected/g Tissue: 0.18 ± 0.03 % Injected/g Tissue
[3]; Sm. Int., 48 hr After 111In
  % Injected/g Tissue: 0.11 ± 0.02 % Injected/g Tissue
[3]; Spleen, 3 hr After 111In
  % Injected/g Tissue: 0.50 ± 0.14 % Injected/g Tissue
[3]; Spleen, 24 hr After 111In
  % Injected/g Tissue: 0.71 ± 0.16 % Injected/g Tissue
[3]; Spleen, 48 hr After 111In
  % Injected/g Tissue: 0.57 ± 0.15 % Injected/g Tissue
[3]; Stomach, 3 hr After 111In
  % Injected/g Tissue: 0.18 ± 0.03 % Injected/g Tissue
